Source: US20190092814A1, “Peptide” (priority 2017, published 2019)
Where no end group is shown, it is not given here.

Assays:
HS-rats = type: in vivo
Experimental: This study was carried out on 46 male Wistar rats (Charles River Ltd, Margate, UK) weighing 230-350 g receiving a standard diet and water ad libitum. Hemorrhagic shock and quantification of organ injury and dysfunction were performed as described previously in Sordi R et al (2017) Ann Surg, 265(2):408-417. Rats were anesthetized by sodium thiopentone (120 mg/kg i.p. for induction, followed by 10 mg/kg i.v. for maintenance). Cannulation of the trachea, femoral artery (for measuring blood pressure), and carotid arteries (for blood withdrawal), jugular vein (for drug administration), and bladder (for collecting urine) were performed. Blood (up to 1 mL/min) was withdrawn via the cannula inserted in the carotid artery in order to achieve a fall in mean arterial pressure (MAP) to 27 to 32 mmHg. Thereafter, MAP was maintained at this level for a period of 90 min either by further withdrawal of blood during the compensation phase or administration shed blood during the decompensation phase. At 90 min after initiation of hemorrhage (or when 25% of the shed blood had to be re-injected to sustain MAP at 27 to 32 mmHg), animals were resuscitated with the remaining shed blood (mixed with 100 IU/mL heparinized saline) (over a period of 5 min) plus a volume of Ringer's lactate identical to the volume of blood spent during decompensation. During the last 3 h of resuscitation, urine was obtained for the estimation of creatinine clearance. Then, blood samples were collected via the carotid artery for measurement of lactate (Accutrend Plus Meter, Roche Diagnostics, West Sussex, UK) and organ injury/dysfunction parameters. Under deep anesthesia, the heart was removed to terminate the experiment. Blood samples were centrifuged to separate serum, which was used for the determination of urea, creatinine, aspartate aminotransferase (AST), alanine aminotransferase (ALT), lipase, amylase and creatine kinase (CK) by an external contract research facility (IDEXX Laboratories Ltd, West Yorkshire, UK) in a blinded fashion. In addition, lung, kidney and liver samples were taken and stored at −80° C. for further analysis. Sham-operated rats were used as control and underwent identical surgical procedures, but without hemorrhage or resuscitation. Blood pressures during the experiment were measured by Powerlab®, and recorded and analyzed by Labchart® (AD instruments Ltd, Dunedin, New Zealand).
The following groups were studied: Sham+vehicle (n=11), sham+Pep19-4LF (n=6), HS+vehicle (n=12), HS+Pep19-4LF-LD (n=8), HS+Pep19-4LF-HD (n=8), HS+Pep19-2.5-HD (n=8). Rats were administered vehicle (saline 1.5 ml/kg/h) or Pep19-4LF (low dose (LD)=66 μg/kg×h; high dose (HD)=333 μg/kg×h) or Pep19-2.5 (high dose (HD)=333 μg/kg×h) continuously for 4 h after resuscitation using infusion pump for rodents (PHD2000, 70-2000; Harvard apparatus Massachusetts, U.S). 11 rats were excluded from data analysis due to surgical/technical issues (n=5) prior to onset of HS and death during resuscitation (n=6). The doses of Pep19-4LF and Pep19-2.5 used in this study were based on efficacy seen in previous in vitro and in vivo studies (Schuerholz T et al (2013) Crit Care, 17(1):R3; Tejada G Md et al (2015) Sci Rep, 5:14292; Martin L et al (2015) PLoS One, 10(5):e0127584; Martin L et al (2015) PLoS One, 10(11):e0143583).

human red blood cells = assay: Hemolysis assay; type: cell-based; conditions: concentrations of up to 100 μg/ml, 37° C., 30 min
Experimental: Red blood cells (RBC) were obtained from citrated human blood by centrifugation (1,500×g; 10 min), washed three times with isotonic 20 mM phosphate-NaCl buffer (pH 7.4), and suspended in the same buffer at a concentration equivalent to 5% of the normal hematocrit. Forty-microliter aliquots of this RBC suspension were added to 0.96 ml of Pep19-4LF dilutions prepared in the same isotonic phosphate solution, incubated at 37° C. for 30 min, and centrifuged (1,500×g, 10 min). The supernatants were analyzed spectrophotometrically (with absorbance at 543 nm) for hemoglobin, and results were expressed as the percentage released with respect to sonicated controls (100% release) or controls processed without peptide (0% release).

[1] = Tejada G Md et al (2015); cited from earlier work
[2] = therapeutic doses; cited from earlier work
[3] = HS-rats, high dose 333 μg/kg×h i.v., 4 h after HS, vs vehicle

Row | Substance | MAP in sham-operated rats (HS-rats; sham-operated rats, high dose 333 μg/kg×h) | hemolysis (hemoglobin release) (human red blood cells) | effects of LPS and lipoproteins [1] | toxicity limiting therapeutic use in man [2] | liver injury caused by HS (HS-rats; HS-rats) | pancreatic injury caused by HS (HS-rats; HS-rats) | renal dysfunction caused by HS (HS-rats; HS-rats) | decline in MAP during the resuscitation period (HS-rats; HS-rats, high dose 333 μg/kg×h i.v. continuously for 4 h after resuscitation, vs HS+vehicle) | organ injury and dysfunction caused by HS (HS-rats; [3]) | rise in lactate caused by HS (HS-rats; [3])
1 | GKKYRRFRWKFKGKLFLFG-NH2 [Pep19-4LF, GKKYRRFRWKFKGKLFLFG] | had no effect | no considerable degree of hemolysis |  |  |  |  |  |  |  | 
2 | LL-37: cathelicidin-derived human AMP (host-defence/antimicrobial peptide) [reference compound] |  |  | neutralize | systemic toxicity |  |  |  |  |  | 
3 | GCKKYRRFRWKFKGKFWFWG (20-amino acid peptide, Pep19-2.5) [20-mer linear synthetic antimicrobial peptide based on Limulus anti-LPS factor] |  |  | neutralize |  | significantly attenuated | significantly attenuated | significantly attenuated | significantly attenuated | significantly attenuated | significantly attenuated
